Laboratory results: US7728128B2, “Dibenzo[c,h][1,5]naphthyridines and their use as DNA probes” (Institut National de la Sante et de la Recherche Medicate …, priority 2006, dated 2010)

Tests used:
[1] = test system: plasmid DNA; assay: absorption of free molecules before and after addition of plasmid DNA; type: physicochemical; design: Absorption maxima free dye / Absorption maxima DNA bound dye: unit not given here; conditions: for Absorption maxima DNA bound dye: after addition of plasmid DNA; for Absorption maxima free dye: free molecule, before addition of plasmid DNA
Experimental: (§1) Plasmid dsDNA was purified using a Qiagen Maxiprep kit and used in the supercoiled form for absorption and fluorescence studies. E. coli total RNA was bought from Ambion, dA/dT and dG/dC homopolymers were purchased from Amersham Biosciences. Calf thymus (CT) high-molecular weight DNA and Hoechst 33258 were obtained from Sigma-Aldrich. Ethidium bromide was purchased from Amresco.
(§2) Spectrometry and fluorimetry were performed using a SpectraMax384 (Molecular Devices) and a Luminescence Spectrometer LS50B (Perkin Elmer). Fluorescence emission of compound I in complex with DNA and RNA was measured in 50 mM Na phosphate buffer, pH 7.2 at room temperature. Before use, total E. coli RNA was heated to 100° C. for 1 min and immediately transferred on ice for 5 min before mixing with compound I solution. All measurements were carried out at room temperature (20-23° C.) in solutions protected from light and incubated for ˜10-15 min after dilution. The units of b/dye and bp/dye are defined as moles of RNA bases or DNA base pairs per mole of dye. Quantum yield was measured using quinine sulphate as standard as described in (Iupac Commission on Photochemistry, EPA Newsletter of November 1986, 21-29) using FLUOROMAX-3 Spex Spectrofluorometer (HORIBA) and UVIKON XL Spectrophotometer (SECOMAM).
(§3) Although compound I also stains mitotic chromosomes (FIG. 1D), theoretically it was possible that it binds specifically to DNA-associated proteins (for example histones) rather than to nucleic acids. To resolve this issue, the absorption and emission spectra of free compound I before and after addition of dsDNA were recorded. […] Molar extinction coefficient (EC) of free compound I at 391 nm was measured at 10,800 cm^−1 M^−1. In the presence of ds plasmid DNA the absorption peaks of compound I at 373 and 391 nm decreased, and a new peak appears with a maximum at 435 nm (FIG. 1E). An overlay of the absorption spectra in complex with dsDNA at different bp per dye ratios gives a single isosbestic point at 398 nm. Free compound I fluoresces around 438 nm (the exact position of the peak depends on the excitation wavelength). […] At the same time, a new peak evolves with a maximum around 484 nm (FIG. 1F). The exact maximum of fluorescence of compound I/DNA complexes varies insignificantly as a function of the dye/bp ratio and/or base pairs composition of the nucleic acids. […] The quantum yield for compound I (excited at 435 nm) at 5 μM in 50 mM Na-phosphate, pH 7.2, was determined to be 2.7% for free dye and 13.8% in admixture with 50 μM CT DNA.
(§4) To get a further insight into how the structural properties of compound I contribute to its binding to DNA, the inventors analysed fourteen structural analogues present in the compound library. Although several of these compounds are fluorescent in vivo, this property went undetected in the initial screen most likely due to the latency period before the appearance of the signal (see below). To evaluate the activity of compound I-like molecules three tests were used: (1) in vivo, the inventors incubated human fibroblasts in the presence of the molecules and scored nuclear fluorescence in the microscope; (2 and 3) in vitro, the inventors looked at the absorption and fluorescence of free molecules before and after addition of plasmid DNA. […] With the exception of compound I and analogues 8 and 12, accurate in vitro measurement of the fluorescence intensities was impossible because the emission peaks for the free molecules were too close to that for the DNA-bound dye. This affected the height of the dye/DNA peaks.

[2] = test system: plasmid DNA; assay: fluorescence of free molecules before and after addition of plasmid DNA; type: physicochemical; design: Fluorescence maxima free dye / Fluorescence maxima DNA bound dye: unit not given beside the values; conditions: for Fluorescence maxima free dye: free molecule, before addition of plasmid DNA; for Fluorescence maxima DNA bound dye: after addition of plasmid DNA
Experimental: as §1, §2, §3, §4

[3] = test system: human fibroblasts; assay: in vivo nuclear fluorescence of human fibroblasts incubated with the molecules, scored in the microscope; type: cell-based; design: key: Weak: Staining was defined as “weak”, “moderate” or “strong” based on the nuclear signal/background ratio.; Moderate: Staining was defined as “weak”, “moderate” or “strong” based on the nuclear signal/background ratio.; Strong: Staining was defined as “weak”, “moderate” or “strong” based on the nuclear signal/background ratio; conditions: 10 μM, 10-60 min (up to 24 hours); Alexa488/FITC filter
Experimental: In this study, three different types of cells were used: Xenopus epithelial cell line XL177 (Miller, L. et al., 1977, In Vitro, 13, 557-563) stably transformed with a YFP-α-tubulin expressing construct (pEYFP-Tub, Clontech), mouse fibroblasts, and primary human skin fibroblasts. XL177 cells were grown at 20° C. in 60% Leibowitz-15 medium, supplemented with antibiotics, 10% fetal calf serum (FCS) and 10 mM HEPES, pH 7.2 with addition of 0.7 mg/ml G418. Cells were plated into glass-bottom 96-well plates (Greiner, Germany) and left to spread for 24 hours before being incubated in the presence of the test compounds from the Curie-CNRS small molecule library (at 25 or 50 μM final concentration) for another 20-24 hours. Mouse and human fibroblasts were grown in DMEM with antibiotics and 10% FCS at 37° C. in the presence of 5% CO2. The cells were observed using a Zeiss Axiovert 200M microscope with a 40× oil immersion objective and a standard Alexa488/FITC filter (Omega, XF100-2; Ex475AF40/Em535AF45/Dichroic505). Subsequent experiments were carried out using smaller concentrations of compound I and incubation times as described in the text and figures legends. For the in vivo tests of compound I-like compounds, the molecules were added to cell culture medium at 10 μM final concentration and incubated with cells 10-60 min (up to 24 hours) prior to scoring.
as §4

Row | Structure (SMILES) | melting point [°C] | Absorption maxima DNA bound dye [1] | Absorption maxima free dye [1] | Fluorescence maxima free dye [2] | Fluorescence maxima DNA bound dye [2] | Images of the in vivo nuclear staining [3]
1 | Cc1nc2c3ccccc3cnc2c2ccccc12 [Compound 1, 6-Methyl-dibenzo[c,h][1,5]naphthyridine] | 153 | – | – | – | – | –
2 | CCN(CC)CCCNCc1nc2c3ccccc3cnc2c2ccccc12 [Compound 2, N′-Dibenzo[c,h][1,5]naphthyridin-6-ylmethyl-N,N-diethyl-propane-1,3-diamine] | – | 365 | 360 | – | – | –
3 | OCCNCCNc1nc2c3ccccc3cnc2c2ccccc12 [Compound 3, 2-[2-(Dibenzo[c,h][1,5]naphthyridin-6-ylamino)-ethylamino]-ethanol] | 100 | 375/375 | 375/375 | – | – | –
4 | CN(C)CCNc1nc2c3ccccc3cnc2c2ccccc12 [Compound 4, N′-Dibenzo[c,h][1,5]naphthyridin-6-yl-N,N-dimethyl-ethane-1,3-diamine] | – | 375 | 370 | 404/ND | – | –
5 | CN(C)CCNCc1nc2c3ccccc3cnc2c2ccccc12 [Compound 5, N′-dibenzo[c,h][1,5]naphthyridin-6-yl-methyl-N,N-dimethyl-ethane-1,2-diamine] | 160 | – | – | – | – | –
6 | CN(C)CCCNCc1nc2c3ccccc3cnc2c2ccccc12 [Compound 6, N′-dibenzo[c,h][1,5]naphthyridin-6-yl-methyl-N,N-dimethyl-propane-1,3-diamine] | 45 | – | – | – | – | –
7 | CC(CO)(CO)NCc1nc2c3ccccc3cnc2c2ccccc12 [Compound 7, N′-dibenzo[c,h][1,5]naphthyridin-6-yl-methylamino-2-methyl-propane-1,3-diol] | 156 | – | 365/ND | – | – | –
8 | COc1ccc2c(c1)c(C)nc1c3ccccc3c(NCCCN(C)C)nc21 [Compound 8, N′-(2-methoxy-12-methyl-dibenzo[c,h][1,5]naphthyridin-6-yl)-N,N-dimethyl-propane-1,3-diamine] | 139 | 425 | 385 | 427 | 468 | –
9 | COc1ccc2c(c1)c(NCCN(C)C)nc1c3ccccc3c(NCCN(C)C)nc21 [Compound 9, N6,N12-bis-(2-dimethylamino-ethyl)-2-methoxy-dibenzo[c,h][1,5]naphthyridin-6,12-diamine] | 169 | 395 | 375 | 468 | 472 | Weak
10 | COc1ccc2c(c1)c(NCCCN(C)C)nc1c3ccccc3c(NCCCN(C)C)nc21 [Compound 10, N6,N12-bis-(3-dimethylamino-propyl)-2-methoxy-dibenzo[c,h][1,5]naphthyridine-6,12-diamine] | 155 | 402 | 380 | 478 | 485 | Moderate/ Strong
11 | COc1ccc2c(c1)c(NCCCN(C)C)nc1c3ccc(OC)cc3c(NCCCN(C)C)nc21 [Compound 11, N,N′-bis-(3-dimethylaminopropyl)-2,8-dimethoxy-dibenzo[c,h][1,5]naphthyridin-6,12-diamine] | 216 | 405 | 390 | 484 | 500 | Moderate/ Strong
12 | COc1ccc2c(c1)c(C)nc1c3ccc(OC)cc3c(NCCN(C)C)nc21 [Compound 12, N′-(2,8-dimethoxy-12-methyl-dibenzo[c,h][1,5]naphthyridin-6-yl)-N,N-dimethyl-ethane-1,3-diamine] | – | 435 | 390 | 435 | 475 | Weak
13 | COc1ccc2c(cnc3c4ccc(OC)cc4c(NCCN(C)C)nc23)c1 [Compound 13, N′-(2,8-dimethoxy-dibenzo[c,h][1,5]naphthyridin-6-yl)-N,N-dimethyl-ethane-1,3-diamine] | – | 394 | 390 | 425 | 407 | Moderate^§
14 | COc1ccc2c(c1)c(NCCN(C)C)nc1c3ccc(OC)cc3c(NCCN(C)C)nc21 [Compound 14, N,N′-bis-(3-dimethylamino-ethyl)-2,8-dimethoxy-dibenzo[c,h][1,5]naphthyridin-6,12-diamine] | 209 | 400/400 | 400/400 | 468 | 482 | Weak
